Assays:
Assay type in all cases: in vivo
[1] = tested on: Echinochloa crus-galli var. formosensis; test: Test Example 1: herbicidal effect test by soil application in paddy rice; conditions: 120 g active ingredient per 10 ares, applied immediately after sowing, flooded pots, 14 days after application; for pest or weed control at 1200 g/ha: Echinochloa crus-galli, soil, 336 h, read-out: weed inhibition rate
Outline: (§1)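 Paddy soil in Wagner pots (1/10,000 acre), fertilized and puddled; 30 seeds per species sown at 0–1 cm, flooded to ~3 cm, greenhouse. Water-diluted emulsifiable concentrate dropped onto flooded pots right after sowing at 120 g active ingredient per 10 ares.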

Scirpus juncoides [2] = test: as above; conditions: 120 g active ingredient per 10 ares, applied immediately after sowing, flooded pots, 14 days after application; for pest or weed control at 1200 g/ha: Schoenoplectiella juncoides, soil, 336 h, read-out: weed inhibition rate
Outline: as §1

[3] = tested on: Echinochloa crus-galli var. formosensis; test: Test Example 2: herbicidal effect test by application during growth period of paddy rice; conditions: 120 g per 10 ares, applied seven days after sowing, flooded pots, 14 days after application; for inhibition at 1200 g/ha: Echinochloa crus-galli, read-out: weed inhibition rate
Outline: (§2)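 Flooded paddy pot test, greenhouse. Seeds 30/species, 0–1 cm depth, water ~3 cm. EC diluted in water, dropper-applied 7 d post-sowing at 120 g a.i./10 a. Inhibition rate (%) read 14 d after treatment; n=2.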

Scirpus juncoides [4] = test: as above; conditions: 120 g per 10 ares, applied seven days after sowing, flooded pots, 14 days after application; for inhibition at 1200 g/ha: Schoenoplectiella juncoides, read-out: weed inhibition rate
Outline: as §2

Digitaria ciliaris [5] = test: Test Example 3: herbicidal effect test by soil application in upland field; conditions: 120 g per 10 ares, sprayed one day after sowing, 14 days after application; for inhibition at 1200 g/ha: Digitaria ciliaris, read-out: weed inhibition rate
Outline: (§3)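 Pre-emergence test: seeds mixed into top 1 cm of alluvial loam upland soil in pots; emulsifiable concentrate diluted in water sprayed on soil one day after sowing at 100 L/10 a, 120 g a.i./10 a. Weed inhibition rate (%) scored at 14 days, in duplicate.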

Echinochloa crus-galli [6] = test: as above; conditions: 120 g per 10 ares, sprayed one day after sowing, 14 days after application; for inhibition at 1200 g/ha: Echinochloa crus-galli, read-out: weed inhibition rate
Outline: as §3

Digitaria ciliaris [7] = test: Test Example 4: herbicidal effect test by stem and leaf treatment in upland field; conditions: 120 g per 10 ares, sprayed seven days after sowing, upland soil, 14 days after application; for inhibition at 1200 g/ha: Digitaria ciliaris, read-out: weed inhibition rate
Echinochloa crus-galli [8] = test: as above; conditions: 120 g per 10 ares, sprayed seven days after sowing, upland soil, 14 days after application; for inhibition at 1200 g/ha: Echinochloa crus-galli, read-out: weed inhibition rate
[9] = tested on: Echinochloa crus-galli var. formosensis; test: Test Example 5: herbicidal effect test by soil application in paddy rice (low dose); conditions: 7.5 g per 10 ares, applied immediately after sowing, flooded pots, 14 days after application; for inhibition at 75 g/ha: Echinochloa crus-galli, soil, 336 h, read-out: weed inhibition rate
Outline: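 Pre-emergence paddy test: seeds sown 0–1 cm (30 each), pots flooded ~3 cm, greenhouse. EC dilution dropped into water right after sowing, 7.5 g a.i./10 a. Duplicate pots; weed inhibition rate (%) by formula, day 14.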

[10] = tested on: Echinochloa crus-galli var. formosensis; test: Test Example 6: herbicidal effect test by application during growth period of paddy rice (low dose); conditions: 7.5 g per 10 ares, applied seven days after sowing, flooded pots, 14 days after application; for inhibition at 75 g/ha: Echinochloa crus-galli, read-out: weed inhibition rate
Outline: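 Paddy soil in flooded Wagner pots (about 3 cm water), weeds sown at 0–1 cm, 30 seeds each, grown in a glass greenhouse. Seven days after sowing, water-diluted emulsifiable concentrate was dropped into the water at 7.5 g active ingredient per 10 ares. Weed inhibition rate (%) was scored 14 days after application, in duplicate.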

Digitaria ciliaris [11] = test: Test Example 7: herbicidal effect test by soil application in upland field (low dose); conditions: 7.5 g per 10 ares, sprayed one day after sowing, 14 days after application; for inhibition at 75 g/ha: Digitaria ciliaris, read-out: weed inhibition rate
Outline: (§4)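 Read-out: weed inhibition rate (%) at 14 d post-treatment, duplicate pots per concentration. Seeds sown in the top 1 cm of upland alluvial loam; emulsifiable concentrate diluted in water and sprayed on the soil surface 1 d after sowing at 7.5 g a.i./10 a (100 L/10 a spray volume).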

Echinochloa crus-galli [12] = test: as above; conditions: 7.5 g per 10 ares, sprayed one day after sowing, 14 days after application; for inhibition at 75 g/ha: Echinochloa crus-galli, read-out: weed inhibition rate
Outline: as §4

Digitaria ciliaris [13] = test: Test Example 8: herbicidal effect test by stem and leaf treatment in upland field (low dose); conditions: 7.5 g per 10 ares, sprayed seven days after sowing, upland soil, 14 days after application; for inhibition at 75 g/ha: Digitaria ciliaris, read-out: weed inhibition rate
Echinochloa crus-galli [14] = test: as above; conditions: 7.5 g per 10 ares, sprayed seven days after sowing, upland soil, 14 days after application; for inhibition at 75 g/ha: Echinochloa crus-galli, read-out: weed inhibition rate

CC(C)C12CC(OCc3ccccc3I)C(C)(CC1Cl)O2 (stereo not drawn) [1-1298, 5-chloro-2-[(2-iodophenyl)methoxy]-1-methyl-4-isopropyl-7-oxabicyclo[2.2.1]heptane]
≥ 80%: pest or weed control at 1200 g/ha [1] | pest or weed control at 1200 g/ha (Scirpus juncoides [2]) | inhibition at 1200 g/ha [3] | inhibition at 1200 g/ha (Scirpus juncoides [4]) | inhibition at 1200 g/ha (Digitaria ciliaris [5]) | inhibition at 1200 g/ha (Echinochloa crus-galli [6]) | inhibition at 1200 g/ha (Digitaria ciliaris [7]) | inhibition at 1200 g/ha (Echinochloa crus-galli [8]) | inhibition at 75 g/ha [9] | inhibition at 75 g/ha [10] | inhibition at 75 g/ha (Digitaria ciliaris [11]) | inhibition at 75 g/ha (Echinochloa crus-galli [12]) | inhibition at 75 g/ha (Digitaria ciliaris [13]) | inhibition at 75 g/ha (Echinochloa crus-galli [14])

CC(C)[C@]12C[C@@H](OCc3ccccc3Br)[C@](C)(C[C@@H]1I)O2 [1-759, (1R,2S,4S,5R)-5-[(2-bromophenyl)methoxy]-2-iodo-1-isopropyl-4-methyl-7-oxabicyclo[2.2.1]heptane]
≥ 80%: pest or weed control at 1200 g/ha [1] | pest or weed control at 1200 g/ha (Scirpus juncoides [2]) | inhibition at 1200 g/ha [3] | inhibition at 1200 g/ha (Scirpus juncoides [4]) | inhibition at 1200 g/ha (Digitaria ciliaris [5]) | inhibition at 1200 g/ha (Echinochloa crus-galli [6]) | inhibition at 1200 g/ha (Digitaria ciliaris [7]) | inhibition at 1200 g/ha (Echinochloa crus-galli [8]) | inhibition at 75 g/ha [9] | inhibition at 75 g/ha [10] | inhibition at 75 g/ha (Digitaria ciliaris [11]) | inhibition at 75 g/ha (Echinochloa crus-galli [12]) | inhibition at 75 g/ha (Digitaria ciliaris [13]) | inhibition at 75 g/ha (Echinochloa crus-galli [14])

CC(C)C12CC(OCc3c(F)cccc3F)C(C)(CC1Cl)O2 (stereo not drawn) [1-1313, 5-chloro-2-[(2,6-difluorophenyl)methoxy]-1-methyl-4-isopropyl-7-oxabicyclo[2.2.1]heptane]
≥ 80%: pest or weed control at 1200 g/ha [1] | pest or weed control at 1200 g/ha (Scirpus juncoides [2]) | inhibition at 1200 g/ha [3] | inhibition at 1200 g/ha (Scirpus juncoides [4]) | inhibition at 1200 g/ha (Digitaria ciliaris [5]) | inhibition at 1200 g/ha (Echinochloa crus-galli [6]) | inhibition at 1200 g/ha (Digitaria ciliaris [7]) | inhibition at 1200 g/ha (Echinochloa crus-galli [8]) | inhibition at 75 g/ha [9] | inhibition at 75 g/ha [10] | inhibition at 75 g/ha (Digitaria ciliaris [11]) | inhibition at 75 g/ha (Echinochloa crus-galli [12]) | inhibition at 75 g/ha (Digitaria ciliaris [13]) | inhibition at 75 g/ha (Echinochloa crus-galli [14])

Cc1cccc(C)c1COC1CC2(C(C)C)OC1(C)CC2I (stereo not drawn) [1-1445, 5-[(2,6-dimethylphenyl)methoxy]-2-iodo-1-isopropyl-4-methyl-7-oxabicyclo[2.2.1]heptane]
≥ 80%: pest or weed control at 1200 g/ha [1] | pest or weed control at 1200 g/ha (Scirpus juncoides [2]) | inhibition at 1200 g/ha [3] | inhibition at 1200 g/ha (Scirpus juncoides [4]) | inhibition at 1200 g/ha (Digitaria ciliaris [5]) | inhibition at 1200 g/ha (Echinochloa crus-galli [6]) | inhibition at 1200 g/ha (Digitaria ciliaris [7]) | inhibition at 1200 g/ha (Echinochloa crus-galli [8]) | inhibition at 75 g/ha [9] | inhibition at 75 g/ha [10] | inhibition at 75 g/ha (Digitaria ciliaris [11]) | inhibition at 75 g/ha (Echinochloa crus-galli [12]) | inhibition at 75 g/ha (Digitaria ciliaris [13]) | inhibition at 75 g/ha (Echinochloa crus-galli [14])

CC(C)[C@]12C[C@@H](OCc3ccccn3)[C@](C)(C[C@@H]1I)O2 [1-785, 2-[[(18,2R,4R,58)-5-iodo-4-isopropyl-1-methyl-7-oxabicyclo[2.2.1]heptan-2-yl]oxymethyl]pyridine]
≥ 80%: weed inhibition rate [1] | weed inhibition rate (Scirpus juncoides [2]) | weed inhibition rate [3] | weed inhibition rate (Scirpus juncoides [4]) | weed inhibition rate (Digitaria ciliaris [5]) | weed inhibition rate (Echinochloa crus-galli [6]) | weed inhibition rate (Digitaria ciliaris [7]) | weed inhibition rate (Echinochloa crus-galli [8]) | weed inhibition rate [9] | weed inhibition rate [10] | weed inhibition rate (Digitaria ciliaris [11]) | weed inhibition rate (Echinochloa crus-galli [12]) | weed inhibition rate (Digitaria ciliaris [13]) | weed inhibition rate (Echinochloa crus-galli [14])

CC#CCOC1C[C@]2(C(C)C)O[C@@]1(C)C[C@@H]2OC (mixture of isomers) [1-801, (1R,2S,4S,SR)-5-but-2-ynoxy-1-isopropyl-2-methoxy-4-methyl-7-oxabicyclo[2.2.1]heptane]
≥ 80%: pest or weed control at 1200 g/ha [1] | pest or weed control at 1200 g/ha (Scirpus juncoides [2]) | inhibition at 1200 g/ha [3] | inhibition at 1200 g/ha (Scirpus juncoides [4]) | inhibition at 1200 g/ha (Digitaria ciliaris [5]) | inhibition at 1200 g/ha (Echinochloa crus-galli [6]) | inhibition at 1200 g/ha (Digitaria ciliaris [7]) | inhibition at 1200 g/ha (Echinochloa crus-galli [8]) | inhibition at 75 g/ha [9] | inhibition at 75 g/ha [10] | inhibition at 75 g/ha (Digitaria ciliaris [11]) | inhibition at 75 g/ha (Echinochloa crus-galli [12]) | inhibition at 75 g/ha (Digitaria ciliaris [13]) | inhibition at 75 g/ha (Echinochloa crus-galli [14])

Source: patent EP4707280A1, “1,4-CINEOLE DERIVATIVE AND INTERMEDIATE THEREOF, HERBICIDE CONTAINING SAID DERIVATIVE AS ACTIVE INGREDIENT, METHOD FOR USING HERBICIDE, AND METHOD FOR PREPARING AGROCHEMICAL COMPOSITION” (HOKKO CHEMICAL INDUSTRY CO., LTD., priority 2023, dated 2024)
